One assay deals with HCT116 cells. As to the kind of experiment: High-throughput resazurin (Alamar blue) cytotoxicity / antiproliferative assay on tumor HCT116 cells. The assay is classed as cell-based, human. To be noted: for effect on proliferation of HCT116 cells: dose-response curves (Figure S4). How it is done: (§1) A colon adenocarcinoma (HCT116) and normal human lung fibroblast (MRC-5) cell lines were purchased from the American Type Culture Collection (ATCC, Manassas, VA). HCT116 cells were maintained in McCoy's 5a Modified Medium supplemented with 10% FBS, 100 units/ml penicillin, and 100 µg/ml streptomycin at 37°C in a humidified 5% CO2 incubator. Subculturing was done using 1∶5 ratio twice a week. MRC-5 cells were maintained in DMEM supplemented with 10% FBS, 100 units/ml penicillin, and 100 µg/ml streptomycin at 37°C in a humidified 5% CO2 incubator. Subculturing was done using 1∶3 ratio twice a week. A cell bank was established for the cell lines used during the differential toxicity screening campaign.
The high-throughput in vitro assay for measuring toxicity and antiproliferative effects of small molecules was implemented as described earlier. Cell lines were grown in culture flasks to 90% confluences, then harvested in counted cell density and seeded into 384-well microtiter plates. Test compounds were then added in various concentrations (in 2% DMSO final concentration) and incubated with the cells in CO2 incubators at 37°C for 48 h. […] During this period, FBS content of the medium was decreased to avoid the masking effect of FBS on toxicity. Detection of viability is based on the reduction of resazurin (Alamar blue) by living cells, resulting in an increased fluorescent signal. For the transformation of the assay into a high-throughput format, a Beckman Biomek liquid handling system and a Wallac Victor plate reader were used. Protocols needed for handling the 384-well plates were established for both single-concentration screening and dose-response curve determination. A plate map was used for the validation of the assay on 384-well plates, which is suitable for the determination of dose-response curves for 16 compounds at the same time using 6 concentrations in triplicate. This experiment was run in parallel on 5 plates and repeated three times on different days. From the dose-response curves, IC50 values were determined and analyzed. […] Based on the established assay protocol, single-point screenings were done at 50 µM compound concentration in duplicate. Likewise, IC50 values were obtained from the toxicity dose-response curves from six compound concentrations in duplicate and calculated with Microcal Origin 5.0.
For orientation: The colour change of resazurin is a common sign of viable cells or microbes.

The next assay relates to colon HCT116 cell lines. More on the design: method as in PMID 19933261. To be noted: cited from earlier work.
The target in assay [1] is amine oxidase flavin-containing B enzyme (MAO-B). More on the design: method as in PMID 19933261. As to conditions: reported in PubChem; cited from earlier work.
A further assay concerns MRC-5 cells. As to the kind of experiment: High-throughput resazurin (Alamar blue) cytotoxicity / antiproliferative assay on normal MRC-5 cells. It counts as cell-based, human. As to conditions: dose-response curves (Figure S4). How it is done: as §1, with “A cell bank was established for the cell lines used during the differential toxicity screening campaign.” left out
The high-throughput in vitro assay for measuring toxicity and antiproliferative effects of small molecules was implemented as described earlier. Cell lines were grown in culture flasks to 90% confluences, then harvested in counted cell density and seeded into 384-well microtiter plates. […] For the transformation of the assay into a high-throughput format, a Beckman Biomek liquid handling system and a Wallac Victor plate reader were used. […] From the dose-response curves, IC50 values were determined and analyzed. To test the reproducibility and robustness of the assay for high-throughput screening, Z′ factors (∼0.72) and S/B ratios (∼10) were determined and the respective plate-to-plate and day-to-day coefficients of variation found to be 5.0%, 2.7%, 1.7% and 5.6%. […]

For a further assay, the system named is HCT116 cell lines. More on the design: method as in PMID 21617858. As to conditions: read-out: IC50, growth of HCT116 cell lines; cited from earlier work.
The subject of the next assay is HCT116 cell. More on the design: method as in PMID 19139018. As to conditions: cited from earlier work.

What is called GI50 is the concentration giving 50% growth inhibition. Usually IC50 stands for the concentration that inhibits the measured activity by half.

Regarding `O=C1c2ccccc2-c2nc(-c3cccc([N+](=O)[O-])c3)nnc21` [NSC680350], the “pGI50 obtained in this work on HCT116 cell lines” value in the assay with HCT116 cells amounted to 5.19. In the assay on HCT116 cells (dose-response curve, Figure S5, read-out: GI50 on HCT116 cell lines), the GI50 came out at 6.4 µM. Also, the “pGI50 for colon HCT116 cell lines reported in PubChem” value in the assay on colon HCT116 cell lines is 4.64. For the same molecule, the IC50 in assay [1] is 80 nM.

For `O=C(CCCCCCC(=O)Nc1ccccc1)NO` [SAHA, suberoylanilide hydroxamic acid], the “effect on MRC-5 cells” value with MRC-5 cells is “little or no effect”. Further, the “effect on proliferation of HCT116 cells” value in the assay with HCT116 cells is recorded as “inhibited the proliferation of HCT116 cells in a dose dependent manner”.

With `C=CCNC1=C2C[C@@H](C)C[C@H](OC)[C@H](O)[C@@H](C)/C=C(\C)[C@H](OC(N)=O)[C@@H](OC)/C=C\C=C(/C)C(=O)NC(=CC1=O)C2=O` [17AAG, 17-(allylamino)-17-demethoxygeldanamycin], in the assay on MRC-5 cells, the “effect on MRC-5 cells” value is “little or no effect”. Moreover, half-maximal inhibition with HCT116 cells (48 h incubation, dose-response, six concentrations in duplicate) (IC50) required 200 nM. Further, the “fold selectivity relative to the antiproliferative effect on MRC-5 cells” value with HCT116 cells (IC50(MRC-5)/IC50(HCT116)) is reported as 93 fold. Also, the “effect on proliferation of HCT116 cells” value in the assay on HCT116 cells was “inhibited the proliferation of HCT116 cells in a dose dependent manner”.

Take `CN(C)C/C=C/C(=O)Nc1cc2c(Nc3ccc(F)c(Cl)c3)ncnc2cc1O[C@H]1CCOC1` [afatinib]: the IC50 with HCT116 cell lines was 1620 nM.

Turning to `O=C(c1ccc(OCCN2CCCCC2)cc1)c1c(-c2ccc(O)cc2)sc2cc(O)ccc12` [raloxifene], in the assay on HCT116 cell, the “inhibition of HCT116 cell growth” value is recorded as “inhibit HCT116 cell growth in a dose-dependent manner”.

These data come from article PMC3338416, “A Chemocentric Approach to the Identification of Cancer Targets” (PLoS ONE, 2012).
